The values below are quoted from earlier work in US20080312310A1, “Compounds, Compositions and Methods” (Cytokinetics, Inc., priority 2002, published 2008).

What is called GI50 is the concentration giving 50% growth inhibition.

This series relates to A549 cells. The conditions noted are these: data provided by National Cancer Institute, Developmental Therapeutic Program.
Regarding `NC(=O)NO` [hydroxyurea], the GI50 is 500000 nM.
In the case of `O=c1[nH]cc(F)c(=O)[nH]1` [5-fluorouracil], the GI50 is 1000 nM.
As for `CC(=O)O[C@H]1C(=O)[C@@]2(C)[C@H]([C@H](OC(=O)c3ccccc3)[C@]3(O)C[C@H](OC(=O)[C@H](O)[C@@H](NC(=O)c4ccccc4)c4ccccc4)C(C)=C1C3(C)C)[C@]1(OC(C)=O)CO[C@@H]1C[C@@H]2O` [paclitaxel], the GI50 was 4 nM.
Take `COc1cccc2c1C(=O)c1c(O)c3c(c(O)c1C2=O)C[C@@](O)(C(=O)CO)C[C@@H]3O[C@H]1C[C@H](N)[C@H](O)[C@H](C)O1` [doxorubicin]: the GI50 was 63 nM.
